Assay results published in PMC6273472, “Design, Synthesis and Biological Evaluation of 6-(2,6-Dichloro-3,5-dimethoxyphenyl)-4-substituted-1H-indazoles as Potent Fibroblast Growth Factor Receptor Inhibitors” (Molecules, 2016).

Legend:
FGFR2 = system: FGFR2; set-up: method as in PMID 21936542; conditions: molecular level; cited from earlier work
FGFR3 = system: FGFR3; set-up: method as in PMID 21936542; conditions: molecular level; cited from earlier work
FGFR4 = system: FGFR4; set-up: method as in PMID 21936542; conditions: molecular level; cited from earlier work
FGFR1 = FGFR1 (Homo sapiens, UniProt P11362); test: ELISA kinase assay (FGFR1 enzymatic assay); assay type: biochemical
Chain of FGFR1 (P11362 22-822): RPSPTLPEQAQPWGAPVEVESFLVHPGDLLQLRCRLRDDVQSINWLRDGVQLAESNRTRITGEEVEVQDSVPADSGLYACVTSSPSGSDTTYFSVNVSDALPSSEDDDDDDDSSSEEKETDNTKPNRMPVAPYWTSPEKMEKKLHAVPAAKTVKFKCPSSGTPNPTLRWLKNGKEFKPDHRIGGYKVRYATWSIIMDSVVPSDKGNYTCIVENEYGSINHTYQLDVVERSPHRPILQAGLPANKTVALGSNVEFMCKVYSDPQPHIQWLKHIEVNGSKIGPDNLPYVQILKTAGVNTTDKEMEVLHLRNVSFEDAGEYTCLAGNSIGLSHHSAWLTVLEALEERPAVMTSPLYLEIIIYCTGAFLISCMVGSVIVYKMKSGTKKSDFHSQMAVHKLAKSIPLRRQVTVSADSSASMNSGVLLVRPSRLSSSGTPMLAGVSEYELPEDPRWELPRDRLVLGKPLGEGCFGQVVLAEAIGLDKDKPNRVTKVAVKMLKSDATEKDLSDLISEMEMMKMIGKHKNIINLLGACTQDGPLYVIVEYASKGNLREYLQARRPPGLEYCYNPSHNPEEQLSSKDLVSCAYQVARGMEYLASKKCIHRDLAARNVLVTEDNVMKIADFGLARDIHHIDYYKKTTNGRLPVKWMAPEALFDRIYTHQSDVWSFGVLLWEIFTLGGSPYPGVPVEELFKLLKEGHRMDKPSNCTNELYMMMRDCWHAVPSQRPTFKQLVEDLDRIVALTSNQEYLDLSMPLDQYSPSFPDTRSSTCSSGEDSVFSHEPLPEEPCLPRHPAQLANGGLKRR
Description: The effects of compounds on the activities of FGFR1 kinases were determined using enzyme-linked immunosorbent assays (ELISAs) with purified recombinant proteins. Briefly, 20 μg/mL poly (Glu, Tyr)4:1 (Sigma, St. Louis, MO, USA) was pre-coated in 96-well plates as a substrate. A 50-μL aliquot of 10 μmol/L ATP solution diluted in kinase reaction buffer (50 mmol/L HEPES [pH 7.4], 50 mmol/L MgCl2, 0.5 mmol/L MnCl2, 0.2 mmol/L Na3VO4, and 1 mmol/L DTT) was added to each well; 1 μL of various concentrations of compounds diluted in 1% DMSO (v/v) (Sigma) were then added to each reaction well. DMSO (1%, v/v) was used as the negative control. The kinase reaction was initiated by the addition of purified tyrosine kinase proteins diluted in 49 μL of kinase reaction buffer. After incubation for 60 min at 37 °C, the plate was washed three times with phosphate-buffered saline (PBS) containing 0.1% Tween 20 (T-PBS). Anti-phosphotyrosine (PY99) antibody (100 μL; 1:500, diluted in 5 mg/mL BSA T-PBS) was then added. After a 30-min incubation at 37 °C, the plate was washed three times, and 100 μL horseradish peroxidase-conjugated goat anti-mouse IgG (1:2000, diluted in 5 mg/mL BSA T-PBS) was added. The plate was then incubated at 37 °C for 30 min and washed 3 times. A 100-μL aliquot of a solution containing 0.03% H2O2 and 2 mg/mL o-phenylenediamine in 0.1 mol/L citrate buffer (pH 5.5) was added. The reaction was terminated by the addition of 50 μL of 2 mol/L H2SO4 as the color changed, and the plate was analyzed using a multi-well spectrophotometer (SpectraMAX 190, Molecular Devices, Palo Alto, CA, USA) at 490 nm. […] The IC50 values were calculated from the inhibition curves in two separate experiments.

[1] = system: tumors harboring FGFR signaling aberrations; conditions: phase I trial, patients with tumors harboring FGFR signaling aberrations; cited from earlier work

## CCN1CCN(c2ccc(Nc3cc(N(C)C(=O)Nc4c(Cl)c(OC)cc(OC)c4Cl)ncn3)cc2)CC1 [NVP-BGJ398, 3-(2,6-dichloro-3,5-dimethoxy-phenyl)-1-{6-[4-(4-ethyl-piperazin-1-yl)-phenylamino]-pyrimidin-4-yl}-1-methyl-urea]
FGFR2
  IC50: 1.4 nM
FGFR3
  IC50: […]
FGFR4
  IC50: […]

## AZD4547 [reference compound]
FGFR1; 0.1 μmol/L compound
  Enzyme Inhibition (%): 93.2%
FGFR1; 1 μmol/L compound
  Enzyme Inhibition (%): 94.3%
[1]
  on-target activity observed in patients: five of 20
